# Measured values published in patent publication US20250376461A1, “INDAZOLE DERIVATIVES FOR TREATING TRPM3-MEDIATED DISORDERS” (Katholieke Universiteit Leuven, priority 2022, published 2025).
# Target: T1, mouse TRPM3α2 (mTRPM3) ion channel (Mus musculus, UniProt J9SQF3)
# T1 construct: expressed in transfected cells; host or cells: flip-in HEK293
# Assay: TRPM3 ion channel driven Ca2+ uptake, Fluo-4 AM assay, mTRPM3alpha2 overexpressing flip-in HEK293 cells stimulated with pregnenolone sulfate (50 μM)
# Type: cell-based
# Conditions: mTRPM3 overexpressing HEK293 cells stimulated with pregnenolone sulfate (50 μM), activity ranges A, B, C
# How it was run: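 Flip-in HEK293 cells overexpressing mTRPM3α2, loaded with Fluo-4 AM, added at ±2000 cells/well to plates holding compound plus 50 μM pregnenolone sulfate in Ca2+-containing Krebs buffer. Fluorescence (ex 485/em 535 nm) read immediately. Percent inhibition normalised between vehicle and positive-control inhibitor; IC50 derived.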
# T1 sequence (J9SQF3 1-1709 isoform J9SQF3-12): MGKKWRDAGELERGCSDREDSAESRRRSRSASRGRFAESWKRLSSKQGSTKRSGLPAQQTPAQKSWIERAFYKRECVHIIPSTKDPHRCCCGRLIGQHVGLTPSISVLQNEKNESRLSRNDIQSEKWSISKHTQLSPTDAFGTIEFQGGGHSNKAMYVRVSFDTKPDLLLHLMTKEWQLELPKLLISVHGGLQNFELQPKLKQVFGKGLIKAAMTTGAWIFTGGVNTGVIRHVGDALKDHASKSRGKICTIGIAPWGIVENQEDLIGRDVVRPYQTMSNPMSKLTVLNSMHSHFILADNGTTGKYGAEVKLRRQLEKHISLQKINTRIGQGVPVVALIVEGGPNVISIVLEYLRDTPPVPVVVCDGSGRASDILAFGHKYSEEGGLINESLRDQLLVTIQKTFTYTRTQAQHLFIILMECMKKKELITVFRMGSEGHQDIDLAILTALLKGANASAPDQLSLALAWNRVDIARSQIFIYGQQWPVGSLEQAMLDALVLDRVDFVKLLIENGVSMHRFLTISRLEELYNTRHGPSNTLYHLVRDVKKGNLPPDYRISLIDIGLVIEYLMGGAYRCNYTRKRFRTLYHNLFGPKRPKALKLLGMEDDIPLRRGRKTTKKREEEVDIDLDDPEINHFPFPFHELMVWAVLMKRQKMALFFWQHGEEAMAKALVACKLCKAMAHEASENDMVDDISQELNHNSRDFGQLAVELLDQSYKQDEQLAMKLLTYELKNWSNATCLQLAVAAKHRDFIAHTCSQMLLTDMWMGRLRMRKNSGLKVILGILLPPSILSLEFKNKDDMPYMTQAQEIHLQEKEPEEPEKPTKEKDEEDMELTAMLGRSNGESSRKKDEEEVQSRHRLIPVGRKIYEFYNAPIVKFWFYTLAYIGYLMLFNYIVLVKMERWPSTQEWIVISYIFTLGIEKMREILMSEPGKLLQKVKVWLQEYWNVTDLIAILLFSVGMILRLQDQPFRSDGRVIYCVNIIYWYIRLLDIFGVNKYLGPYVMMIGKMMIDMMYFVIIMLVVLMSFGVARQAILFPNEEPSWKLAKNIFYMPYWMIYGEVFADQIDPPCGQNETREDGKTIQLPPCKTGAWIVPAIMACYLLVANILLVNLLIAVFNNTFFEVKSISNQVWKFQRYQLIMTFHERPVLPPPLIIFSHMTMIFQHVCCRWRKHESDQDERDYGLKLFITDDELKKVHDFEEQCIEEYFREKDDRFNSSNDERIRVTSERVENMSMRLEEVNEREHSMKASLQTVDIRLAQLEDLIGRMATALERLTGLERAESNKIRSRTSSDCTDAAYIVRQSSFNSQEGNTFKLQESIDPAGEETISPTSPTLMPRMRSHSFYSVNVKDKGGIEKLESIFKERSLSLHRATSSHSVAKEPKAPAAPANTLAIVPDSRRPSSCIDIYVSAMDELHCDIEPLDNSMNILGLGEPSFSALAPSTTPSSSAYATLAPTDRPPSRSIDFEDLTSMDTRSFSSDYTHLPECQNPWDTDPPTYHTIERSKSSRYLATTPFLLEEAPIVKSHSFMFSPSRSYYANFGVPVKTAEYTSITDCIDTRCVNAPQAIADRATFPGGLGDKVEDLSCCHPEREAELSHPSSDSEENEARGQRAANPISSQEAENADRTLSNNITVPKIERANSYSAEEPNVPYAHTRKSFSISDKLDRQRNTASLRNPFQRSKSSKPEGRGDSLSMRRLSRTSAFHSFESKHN
row,SMILES,IC50
1,"Cn1nc2ccc(OCc3ccccn3)cc2c1C(=O)NC1(CO)CC1C(F)F (single isomer, unassigned) [Cpd 237 - En1]",1 to 20 µM
2,"Cn1nc2ccc(OCc3ccccn3)cc2c1C(=O)NC1(CO)CC1C(F)F (single isomer, unassigned) [Cpd 237 - En2]",> 20 µM
3,"Cn1nc2ccc(OCc3ccccn3)cc2c1C(=O)NC(CO)c1nccn1C1CC1 (single isomer, unassigned) [Cpd 238 - En1]",1 to 20 µM
4,"Cn1nc2ccc(OCc3ccccn3)cc2c1C(=O)NC(CO)c1nccn1C1CC1 (single isomer, unassigned) [Cpd 238 - En2]",1 to 20 µM
5,"Cn1ccc(C(C)(CO)NC(=O)c2c3cc(OCc4ccccn4)ccc3nn2C)n1 (single isomer, unassigned) [Cpd 239 - En1]",> 20 µM
6,"Cn1ccc(C(C)(CO)NC(=O)c2c3cc(OCc4ccccn4)ccc3nn2C)n1 (single isomer, unassigned) [Cpd 239 - En2]",> 20 µM
7,"Cn1nc2ccc(OCc3ccccn3)cc2c1C(=O)NC(CO)CC(N)=O (single isomer, unassigned) [Cpd 240 - En1, 4-hydroxy-3-({2-methyl-5-[(pyridin-2-yl)methoxy]-2H-indazol-3-yl}formamido)butanamide]",> 20 µM
8,"Cn1nc2ccc(OCc3ccccn3)cc2c1C(=O)NC(CO)CC(N)=O (single isomer, unassigned) [Cpd 240 - En2, 4-hydroxy-3-({2-methyl-5-[(pyridin-2-yl)methoxy]-2H-indazol-3-yl}formamido)butanamide]",> 20 µM
9,"Cn1nc2ccc(OCc3ccccn3)cc2c1C(=O)NC(CO)C1CCOCC1 (single isomer, unassigned) [Cpd 241 - En1]",1 to 20 µM
10,"Cn1nc2ccc(OCc3ccccn3)cc2c1C(=O)NC(CO)C1CCOCC1 (single isomer, unassigned) [Cpd 241 - En2]",> 20 µM
11,"Cn1nc2ccc(OCc3ccccn3)cc2c1C(=O)NC(CO)Cc1ncccn1 (single isomer, unassigned) [Cpd 243 - En1]",> 20 µM
12,"Cn1nc2ccc(OCc3ccccn3)cc2c1C(=O)NC(CO)Cc1ncccn1 (single isomer, unassigned) [Cpd 243 - En2]",> 20 µM
13,"Cn1nc2ccc(OCc3ccccn3)cc2c1C(=O)NCC(O)CC(F)(F)F (single isomer, unassigned) [Cpd 245 - En1]",> 20 µM
14,"Cn1nc2ccc(OCc3ccccn3)cc2c1C(=O)NCC(O)CC(F)(F)F (single isomer, unassigned) [Cpd 245 - En2]",> 20 µM
15,"Cn1nc2ccc(OCc3ccccn3)cc2c1C(=O)NC1CNCC1C(F)(F)F (single isomer, unassigned) [Cpd 246 - En1]",> 20 µM
16,"Cn1nc2ccc(OCc3ccccn3)cc2c1C(=O)NC1CNCC1C(F)(F)F (single isomer, unassigned) [Cpd 246 - En2]",< 1 µM
17,"Cn1nc2ccc(OCc3ccccn3)cc2c1C(=O)NC1(CC(F)F)CCCNC1 (single isomer, unassigned) [Cpd 248 - En1]",> 20 µM
18,"Cn1nc2ccc(OCc3ccccn3)cc2c1C(=O)NC1(CC(F)F)CCCNC1 (single isomer, unassigned) [Cpd 248 - En2]",1 to 20 µM
19,"Cn1ccc(C(CO)NC(=O)c2c3cc(OCc4ccccn4)ccc3nn2C)n1 (single isomer, unassigned) [Cpd 251 - En1]",> 20 µM
20,"Cn1ccc(C(CO)NC(=O)c2c3cc(OCc4ccccn4)ccc3nn2C)n1 (single isomer, unassigned) [Cpd 251 - En2]",> 20 µM
21,"Cn1nc2ccc(OCc3ccccn3)cc2c1C(=O)NC(CO)Cc1ccccn1 (single isomer, unassigned) [Cpd 252 - En1]",> 20 µM
22,"Cn1nc2ccc(OCc3ccccn3)cc2c1C(=O)NC(CO)Cc1ccccn1 (single isomer, unassigned) [Cpd 252 - En2]",> 20 µM
23,"Cn1nc2ccc(OCc3ccccn3)cc2c1C(=O)NC1(CO)CCNC1=O (single isomer, unassigned) [Cpd 253 - En1]",< 1 µM
24,"Cn1nc2ccc(OCc3ccccn3)cc2c1C(=O)NC1(CO)CCNC1=O (single isomer, unassigned) [Cpd 253 - En2]",1 to 20 µM

row,SMILES,IC50
1,"Cn1nc2ccc(OCc3ccccn3)cc2c1C(=O)NC(CO)C(F)(F)F (single isomer, unassigned) [Cpd 254 - En1]",1 to 20 µM
2,"Cn1nc2ccc(OCc3ccccn3)cc2c1C(=O)NC(CO)C(F)(F)F (single isomer, unassigned) [Cpd 254 - En2]",> 20 µM
3,"Cn1nc2ccc(OCc3ccccn3)cc2c1C(=O)NC(C)(CO)CC(F)(F)F (single isomer, unassigned) [Cpd 255 - En1, 2-methyl-5-[(pyridin-2-yl)methoxy]-N-(4,4,4-trifluoro-1-hydroxy-2-methylbutan-2-yl)-2H-indazole-3-carboxamide]",1 to 20 µM
4,"Cn1nc2ccc(OCc3ccccn3)cc2c1C(=O)NC(C)(CO)CC(F)(F)F (single isomer, unassigned) [Cpd 255 - En2, 2-methyl-5-[(pyridin-2-yl)methoxy]-N-(4,4,4-trifluoro-1-hydroxy-2-methylbutan-2-yl)-2H-indazole-3-carboxamide]",1 to 20 µM
5,"COCC(C)(CO)NC(=O)c1c2cc(OCc3ccccn3)ccc2nn1C (single isomer, unassigned) [Cpd 258 - En1]",1 to 20 µM
6,"COCC(C)(CO)NC(=O)c1c2cc(OCc3ccccn3)ccc2nn1C (single isomer, unassigned) [Cpd 258 - En2]",1 to 20 µM
7,"Cc1ncsc1COc1ccc2nn(C)c(C(=O)NC3(CO)CCOCC3)c2c1 [Cpd 001, N-[4-(hydroxymethyl)oxan-4-yl]-2-methyl-5-[(4-methyl-1,3-thiazol-5-yl)methoxy]-2H-indazole-3-carboxamide]",1 to 20 µM
8,"Cn1nc2ccc(OCc3ccccc3)cc2c1C(=O)NC1(CO)CC1 [Cpd 004, 5-(benzyloxy)-N-[1-(hydroxymethyl)cyclopropyl]-2-methyl-2H-indazole-3-carboxamide]",1 to 20 µM
9,"Cc1ncsc1COc1ccc2nn(C)c(C(=O)NC(C)(C)CO)c2c1 [Cpd 005, N-(1-hydroxy-2-methylpropan-2-yl)-2-methyl-5-[(4-methyl-1,3-thiazol-5-yl)methoxy]-2H-indazole-3-carboxamide]",1 to 20 µM
10,"Cn1ccc(NC(=O)c2c3cc(OCc4ccnn4C)ccc3nn2C)n1 [Cpd 006, 2-methyl-N-(1-methyl-1H-pyrazol-3-yl)-5-[(1-methyl-1H-pyrazol-5-yl)methoxy]-2H-indazole-3-carboxamide]",> 20 µM
11,"Cn1nc2ccc(OCc3cccnc3C(F)(F)F)cc2c1C(=O)NC1CCNC1=O (centres unmarked) [Cpd 007, 2-methyl-N-(2-oxopyrrolidin-3-yl)-5-{[2-(trifluoromethyl)pyridin-3-yl]methoxy}-2H-indazole-3-carboxamide]",< 1 µM
12,"Cn1nc2ccc(OCc3ccccc3)cc2c1C(=O)NC1CCNC1=O (centres unmarked) [Cpd 008, 5-(benzyloxy)-2-methyl-N-(2-oxopyrrolidin-3-yl)-2H-indazole-3-carboxamide]",1 to 20 µM
13,"Cn1nccc1COc1ccc2nn(C)c(C(=O)NC(C)(CO)CO)c2c1 [Cpd 009, N-(1,3-dihydroxy-2-methylpropan-2-yl)-2-methyl-5-[(1-methyl-1H-pyrazol-5-yl)methoxy]-2H-indazole-3-carboxamide]",1 to 20 µM
14,"Cn1nccc1COc1ccc2nn(C)c(C(=O)NCC(C)(C)CO)c2c1 [Cpd 012, N-(3-hydroxy-2,2-dimethylpropyl)-2-methyl-5-[(1-methyl-1H-pyrazol-5-yl)methoxy]-2H-indazole-3-carboxamide]",1 to 20 µM
15,"Cn1ccc(NC(=O)c2c3cc(OCc4cccnc4C(F)(F)F)ccc3nn2C)n1 [Cpd 013, 2-methyl-N-(1-methyl-1H-pyrazol-3-yl)-5-{[2-(trifluoromethyl)pyridin-3-yl]methoxy}-2H-indazole-3-carboxamide]",1 to 20 µM
16,"Cn1ccc(NC(=O)c2c3cc(OCc4ccccc4)ccc3nn2C)n1 [Cpd 014, 5-(benzyloxy)-2-methyl-N-(1-methyl-1H-pyrazol-3-yl)-2H-indazole-3-carboxamide]",1 to 20 µM
17,"Cn1nccc1COc1ccc2nn(C)c(C(=O)NC(C)(C)CO)c2c1 [Cpd 015, N-(1-hydroxy-2-methylpropan-2-yl)-2-methyl-5-[(1-methyl-1H-pyrazol-5-yl)methoxy]-2H-indazole-3-carboxamide]",1 to 20 µM
18,"Cn1nc2ccc(OCc3cccnc3C(F)(F)F)cc2c1C(=O)NC(C)(CO)CO [Cpd 016, N-(1,3-dihydroxy-2-methylpropan-2-yl)-2-methyl-5-{[2-(trifluoromethyl)pyridin-3-yl]methoxy}-2H-indazole-3-carboxamide]",< 1 µM
19,"Cn1nc2ccc(OCc3ccccc3)cc2c1C(=O)NC(C)(CO)CO [Cpd 017, 5-(benzyloxy)-N-(1,3-dihydroxy-2-methylpropan-2-yl)-2-methyl-2H-indazole-3-carboxamide]",1 to 20 µM
20,"Cc1ncsc1COc1ccc2nn(C)c(C(=O)Nc3ccn(C)n3)c2c1 [Cpd 018, 2-methyl-5-[(4-methyl-1,3-thiazol-5-yl)methoxy]-N-(1-methyl-1H-pyrazol-3-yl)-2H-indazole-3-carboxamide]",1 to 20 µM
21,"Cn1nc2ccc(OCc3cccnc3C(F)(F)F)cc2c1C(=O)NCC(C)(C)CO [Cpd 019, N-(3-hydroxy-2,2-dimethylpropyl)-2-methyl-5-{[2-(trifluoromethyl)pyridin-3-yl]methoxy}-2H-indazole-3-carboxamide]",> 20 µM
22,"Cn1nc2ccc(OCc3ccccc3)cc2c1C(=O)NCC(C)(C)CO [Cpd 020, 5-(benzyloxy)-N-(3-hydroxy-2,2-dimethylpropyl)-2-methyl-2H-indazole-3-carboxamide]",1 to 20 µM
23,"Cc1ncsc1COc1ccc2nn(C)c(C(=O)NC(C)(CO)CO)c2c1 [Cpd 021, N-(1,3-dihydroxy-2-methylpropan-2-yl)-2-methyl-5-[(4-methyl-1,3-thiazol-5-yl)methoxy]-2H-indazole-3-carboxamide]",< 1 µM
